{"source": "patent US20260327242A1", "about": "“Platform and Scaffold for FAP Targeting Agents” (Erasmus University Medical Center Rotterdam, priority 2022, published 2026)", "key": {"FAP [1]": {"tested_on": "FAP", "conditions": "cited from earlier work"}, "FAP [2]": {"molecular_target": "T1, FAP (Homo sapiens, UniProt Q12884)", "T1 construct": "expressed in transfected cells; host or cells: HT-1080.hFAP", "T1 sequence (Q12884 1-760)": "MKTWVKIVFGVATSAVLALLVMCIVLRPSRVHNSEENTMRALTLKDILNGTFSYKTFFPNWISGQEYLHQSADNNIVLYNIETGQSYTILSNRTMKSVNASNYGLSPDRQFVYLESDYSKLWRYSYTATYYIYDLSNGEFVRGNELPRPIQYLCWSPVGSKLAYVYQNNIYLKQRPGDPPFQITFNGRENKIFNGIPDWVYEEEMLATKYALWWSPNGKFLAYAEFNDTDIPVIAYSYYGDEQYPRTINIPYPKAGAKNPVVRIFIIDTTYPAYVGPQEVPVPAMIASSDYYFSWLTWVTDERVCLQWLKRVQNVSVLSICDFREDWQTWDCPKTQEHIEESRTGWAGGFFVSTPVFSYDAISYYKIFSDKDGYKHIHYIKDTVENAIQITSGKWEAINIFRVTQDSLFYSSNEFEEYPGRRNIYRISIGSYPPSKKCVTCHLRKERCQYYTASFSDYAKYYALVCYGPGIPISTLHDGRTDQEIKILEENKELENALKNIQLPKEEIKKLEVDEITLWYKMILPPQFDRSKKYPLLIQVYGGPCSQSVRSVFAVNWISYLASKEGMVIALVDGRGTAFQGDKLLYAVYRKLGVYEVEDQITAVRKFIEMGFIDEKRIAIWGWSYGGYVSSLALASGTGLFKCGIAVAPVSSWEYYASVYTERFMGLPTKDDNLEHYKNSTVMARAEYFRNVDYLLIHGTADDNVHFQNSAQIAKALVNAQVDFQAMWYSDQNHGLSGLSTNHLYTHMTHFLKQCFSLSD", "test": "Competitive binding assay against [^111In]In-FAPI-46 in HT-1080.hFAP cells", "conditions": "37° C., 1 h", "experimental": "The U-87 MG glioblastoma was cultured at 37° C. and 5% CO2 in Dulbecco's Modified Eagle Medium (DMEM) supplemented with 10% (v/v) fetal calf serum. HT-1080.hFAP cells were kept in culture in DMEM medium supplemented with fetal bovine serum (10%, FBS) and antibiotic antimycotic (1%, AA) at 37° C. and 5% CO2. For passaging, cells were detached using Trypsin-EDTA 0.05% when reaching 90% confluence and re-seeded at a dilution of 1:4.\nCompetition binding experiments were conducted by incubation of the [^111In]In-FAPI-46 radioligand with increasing concentrations of eFAP compound in HT-1080.hFAP cells at 37° C. for 1 h. Cells were then washed three times with binding buffer and lysed. The cell-associated radioactivity was measured in a γ-counter. The IC50 values were calculated by fitting the data by non-linear regression using GraphPad Prism.\nResults with FABI-46 obtained in the same assay is included for comparison."}, "U-87 tumor": {"tested_on": "U-87 tumor", "test": "Near-infrared fluorescence imaging of U-87 tumor bearing mice", "assay_type": "in vivo, mouse", "conditions": "2 nmol i.v., imaging 1 h, excised tumors 2.5 h", "excerpt": "Six-week-old male Balb/c nu/nu-specific and opportunistic pathogen-tree (SOPF) mice were housed in individually ventilated cages, with 4 mice per cage. Upon arrival, mice were acclimated for 1 week, with access to food and water ad libitum. Mice were subcutaneously inoculated on the right shoulder with U-87 or HT-1080.hFAP cells (1×10^6 cells). Xenografts were allowed to grow until they reached an appropriate size at the start of the studies. All animal experiments were approved by the Animal Welfare Committee of the Erasmus MC and were conducted in agreement with institutional guidelines (license number: AVD101002017867).\nEvaluation of targeting performance of eFAP-17 in near-infrared fluorescence imaging of U-87 tumor bearing mice after intravenous injection of 2 nmol of the probe are given in FIG. 9 showing A) NIRF imaging of U-87 tumor bearing mice at 1 h after intravenous injection of 2 nmol of CW800 (left, negative control) or eFAP-17 (right) and B) image of excised tumors 2.5 h post administration of CW800 (left) or eFAP-17 (right)."}, "mouse FAP (mFAP)": {"molecular_target": "T2, mouse FAP (mFAP) (Mus musculus, UniProt P97321)", "T2 sequence (P97321 26-761 limits assumed)": "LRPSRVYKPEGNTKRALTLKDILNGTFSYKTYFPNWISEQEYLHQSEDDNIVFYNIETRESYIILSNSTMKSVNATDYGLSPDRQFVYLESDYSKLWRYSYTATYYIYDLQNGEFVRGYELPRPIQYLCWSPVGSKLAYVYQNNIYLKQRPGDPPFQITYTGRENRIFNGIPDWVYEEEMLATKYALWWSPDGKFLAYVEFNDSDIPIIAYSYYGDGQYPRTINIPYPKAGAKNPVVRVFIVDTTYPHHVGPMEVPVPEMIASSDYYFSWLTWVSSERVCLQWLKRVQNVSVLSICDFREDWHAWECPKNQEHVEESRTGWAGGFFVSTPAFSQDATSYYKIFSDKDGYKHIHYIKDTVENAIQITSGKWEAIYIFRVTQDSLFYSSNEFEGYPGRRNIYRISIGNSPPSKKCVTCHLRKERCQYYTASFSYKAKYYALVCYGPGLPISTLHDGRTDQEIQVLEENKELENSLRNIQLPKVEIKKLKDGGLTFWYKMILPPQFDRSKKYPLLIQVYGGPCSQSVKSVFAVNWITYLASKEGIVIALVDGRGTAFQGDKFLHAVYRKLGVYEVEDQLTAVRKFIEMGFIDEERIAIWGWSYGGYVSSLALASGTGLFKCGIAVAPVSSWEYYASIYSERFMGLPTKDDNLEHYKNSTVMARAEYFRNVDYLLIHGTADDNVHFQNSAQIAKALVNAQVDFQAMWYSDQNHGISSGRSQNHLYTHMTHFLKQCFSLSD", "test": "In vitro inhibition assay on mouse FAP (Z-GP-AMC substrate)", "assay_type": "biochemical", "conditions": "20 μM Z-GP-AMC, 20 nM FAP, pH 7.4, room temperature", "experimental": "Enzymatic activity of human FAP (hFAP) and mouse FAP (mFAP) on the Z-GP-AMC substrate was measured at room temperature on a Hidex microplate reader by monitoring the fluorescence at an excitation wavelength of 360 nm and an emission wavelength of 465 nm. The reaction mixture contained 20 μM substrate, 20 nM FAP, assay buffer (50 mM Tris, 100 mM NaCl, 1 mM EDTA, pH 7.4) and tested compound (serial dilution from 10-6 to 10^−12) in a total volume of 50 μL.\nResults with FAPI-46 obtained in the same assay is included for comparison."}, "[3]": {"conditions": "vis-à-vis FAPI-04; cited from earlier work"}}, "data": [{"compound": "N#C[C@@H]1CC(F)(F)CN1C(=O)CNC(=O)c1ccnc2ccccc12", "note": "[UAMC-1110]", "values": [{"measurement": "affinity to FAP (in words)", "setting": "FAP [1]", "result": "nanomolar affinity to FAP"}]}, {"compound": "N#C[C@@H]1CC(F)(F)CN1C(=O)CNC(=O)c1ccnc2c(OCCCNC(=O)CN3CCN(CC(=O)O)CCN(CC(=O)O)CCN(CC(=O)O)CC3)cccc12", "note": "[eFAP-6, (S)-2,2′,2″-(10-(2-((3-((4-((2-(2-Cyano-4,4-difluoropyrrolidin-1-yl)-2-oxoethyl)carbamoyl)quinolin-8-yl)oxy)propyl)amino)-2-oxoethyl)-1,4,7,10-tetraazacyclododecane-1,4,7-triyl)triacetic acid]", "values": [{"measurement": "binding affinity for FAP (in words)", "setting": "FAP [2]", "result": "low nano-molar binding affinity for FAP"}]}, {"compound": "CC1(C)C(/C=C/C2=C(Oc3ccc(S(=O)(=O)O)cc3)C(=C/C=C3/N(CCCCCC(=O)NCCCOc4cccc5c(C(=O)NCC(=O)N6CC(F)(F)C[C@H]6C#N)ccnc45)c4ccc(S(=O)(=O)O)cc4C3(C)C)/CCC2)=[N+](CCCCS(=O)(=O)[O-])c2ccc(S(=O)(=O)O)cc21", "note": "[eFAP-17, 4-(2-((E)-2-((E)-3-(2-((E)-1-(6-((3-((4-((2-((S)-2-Cyano-4,4-difluoropyrrolidin-1-yl)-2-oxoethyl)carbamoyl)quinolin-8-yl)oxy)propyl)amino)-6-oxohexyl)-3,3-dimethyl-5-sulfoindolin-2-ylidene)ethylidene)-2-(4-sulfophenoxy)cyclohex-1-en-1-yl)vinyl)-3,3-dimethyl-5-sulfo-3H-indol-1-ium-1-yl)butane-1-sulfonate]", "values": [{"measurement": "accumulation in healthy tissues, NIRF imaging (in words)", "setting": "U-87 tumor", "result": "low accumulation in healthy tissues"}, {"measurement": "tumor uptake, NIRF imaging (in words)", "setting": "U-87 tumor", "result": "high uptake in the FAP overexpressing tumor"}, {"measurement": "IC50", "setting": "mouse FAP (mFAP)", "result": "5 ± 0.2", "unit": "nM"}]}, {"compound": "CN(CCCN1CCN(C(=O)CN2CCN(CC(=O)O)CCN(CC(=O)O)CCN(CC(=O)O)CC2)CC1)c1ccc2nccc(C(=O)NCC(=O)N3CC(F)(F)C[C@H]3C#N)c2c1", "note": "[FAPI-46]", "values": [{"measurement": "tumor-to-organ ratios (in words)", "setting": "[3]", "result": "improved tumor-to-organ ratios"}]}]}
